This is an account of results in patent US8980933B2, “Combretastatin analogs for use in the treatment of cancer” (Universitat Bayreuth, priority 2010, dated 2015).

“And” between values parts separate entries of the source, which are not always exact repeats. Equal entries are not always repeated.

A short description of data set [1]: Toxicity / tolerability in mice. Format: in vivo. The method, then:
Prior to testing compound 5b, healthy animals of this type were treated with an ascending range of doses of 5b in order to establish a toxicity profile. […] Suitable dosages were then administered in further tests in a nude mouse xenograft model of a pair of germ cell tumor cell lines, the chemoresistant cell line 1411HP and the chemosensitive cell line H12.1. These cell lines retain their individual in vitro chemosensitivities to cisplatin when grown as xenograft tumors and so may serve as a model of the clinical situation of resistance to chemotherapy (Mueller et al. Cancer Res. 2003; Mueller et al. Tumor Biol. 2006).
Compounds 5b, 6b and 6f were also tested in terms of feasibility of oral administration. Mice received a single dose of 40 mg/kg body weight of 5b, 6b or 6f, respectively. […] Then compounds 6b or 6f were given peroral as dual-dose application on two consecutive days in accordance to the i.p. treatment scheme used for the regression trials but with a 2-fold higher dose of 2×40 mg/kg body weight.

The subject of data set [2] is MCF-7/Topo breast carcinoma cells. Description: MTT cell growth inhibition, MCF-7/Topo. Conditions: MCF-7/Topo (BCRP+). Format: cell-based, human. How it is done:
The effects of the compounds 5b, 6b, 8a, and 8e according to the present invention and of the reference compound 25f (Wang et al., J. Med. Chem. 2002, 45, 1697-1711) on cells of the following human tumor cell lines were evaluated: 518A2 melanoma, HL-60 leukemia, HT-29 colon carcinoma, KB-V1/Vbl cervical carcinoma, and MCF-7/Topo breast carcinoma.
The HL-60 cells were obtained from the German Collection of Biological Material (DSMZ), Braunschweig, Germany; the human 518A2 melanoma cells as well as the testicular germ cell tumor cell lines H12.1 and 1411HP were cultured in the department of oncology and hematology, Medical Faculty of the Martin-Luther University, Halle, Germany; the KBV1/Vbl and the MCF-7/Topo cells were obtained from the Institute of Pharmacy of the University Regensburg, Germany; and the colon HT-29 cells from the University Hospital Erlangen, Germany. The HL-60 and the HT-29 cells were grown in RPMI-1640 medium supplemented with 10% fetal calf serum (FCS), 100 IU/mL penicillin G, 100 μg/mL streptomycin sulfate, 0.25 μg/mL amphotericin B and 250 μg/mL gentamycine (all from Gibco, Egenstein, Germany). The 518A2 and the KB-V1/Vbl cells were cultured in Dulbecco's Modified Eagle Medium (D-MEM, Gibco) containing 10% FCS, 100 IU/mL penicillin G, 100 μg/mL streptomycin sulfate, 0.25 μg/mL amphotericin B and 250 μg/mL gentamycine. The MCF-7/Topo cells were grown in E-MEM medium (Sigma) supplemented with 2.2 g/L NaHCO3, 110 mg/L sodium pyruvate and 5% FCS. The cells were maintained in a moisture-saturated atmosphere (5% CO2) at 37° C. in 75-mL culture flasks (Nunc, Wiesbaden, Germany). They were serially passaged following trypsinisation by 0.05% trypsin/0.02% EDTA (PAA laboratories, Clbe, Germany). Mycoplasma contamination was routinely monitored, and only mycoplasma-free cultures were used.
MTT [3-(4,5-dimethylthiazol-2-yl)-2,5-diphenyltetrazolium bromide](ABCR) was used to identify viable cells which reduce it to a violet formazan (Mosmann, J. Immunol. Methods 1983, 65, 55-63). HL-60 leukemia cells (5×10^5/mL), and cells (5×10^4/mL) of 518A2 melanoma, HT-29 colon, KB-V1/Vbl cervix and MCF-7/Topo breast carcinoma were seeded out in 96-well tissue culture plates and cultured for 24 h. Incubation (5% CO2, 95% humidity, 37° C.) of the cells following treatment with the test compounds was continued for 24, 48 or 72 h. Blank and solvent controls were treated identically. […] The microplates were gently shaken in the dark for 30 min and absorbance at 570 nm and 630 nm (background) was measured with an ELISA plate reader. All experiments were carried out in quadruplicate; the percentage of viable cells was calculated as the mean±SD with controls set to 100%.

A further data set has as its system HL-60 cells. As to the kind of experiment: ROS generation, NBT assay, HL-60. Format: cell-based, human. Conditions: 50 μM, relative to untreated controls (1%), mean ± SD. The gist of the method: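 Cells were treated with compounds at 50 μM final, then exposed to 0.1% NBT for 1 h (HL-60, 0.5·10^6/mL) or 4 h (518A2, medium removed first). Reduced formazan was dissolved in KOH/DMSO, and absorbance was read at 630 nm with 405 nm background. Assays were run in quadruplicate.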

With `COc1ccc(-c2c(-c3cc(Cl)c(OC)c(OC)c3)ncn2C)cc1N` [compound 5b, 1-methyl-5-(3-amino-4-methoxyphenyl)-4-(3-chloro-4,5-dimethoxyphenyl)-imidazole], the toxicity profile result in data set [1] (healthy mice, ascending range of doses) is “very well tolerated by the mice even at relatively high concentrations”. The “toxicity after oral administration” value in data set [1] (single dose 40 mg/kg oral) is “No signs of toxicity were observed”. In data set [2], the “cytotoxicity / efficacy (comparison)” value was “noticeably less active but still superior to the known imidazole 25f”. In the data set on HL-60 cells, the “NBT Reduction [%] in HL-60 cells after 24 h” value is 4.4% and 4.4 ± 0.6%.

Consider `COc1ccc(-c2c(-c3cc(Br)c(OC)c(OC)c3)ncn2C)cc1N` [compound 6b, 1-methyl-5-(3-amino-4-methoxyphenyl)-4-(3-bromo-4,5-dimethoxyphenyl)-imidazole], for which the “toxicity after oral administration” value in data set [1] (peroral dual-dose 2×40 mg/kg on two consecutive days) was “well tolerated and induced only a transient and marginal loss of body weight”; in data set [1] (single dose 40 mg/kg oral) it was “No signs of toxicity were observed”; in data set [1] (single dose 60 mg/kg peroral), “No signs of toxicity were observed”. Moreover, the “cytotoxicity / efficacy (comparison)” value in data set [2] was “noticeably less active but still superior to the known imidazole 25f”. Also, in the data set on HL-60 cells, the “NBT Reduction [%] in HL-60 cells after 24 h” value amounted to 3.8 ± 0.3%.
